Reference: patent EP4467141A1, “PYRAZOLO-QUINOLINES AS SELECTIVE INHIBITORS OF GENOTOXIC STRESS-INDUCED IKK/NF- KB PATHWAYS FOR CANCER THERAPY” (Max-Delbrück-Centrum für Molekulare Medizin in der …, priority 2023, dated 2024)

How the values were obtained:
Assay in all cases: Kinase panel study
Assay type in all cases: biochemical
Details in all cases: read-out: Percentage of inhibition; for inhibition at 1 µM: 1000nM; for inhibition at 10 µM: 10000nM
[1] = target: T1, TEK (Tie2) (Homo sapiens, UniProt Q02763)
T1 construct: purchased Thermo Fisher Scientific
T1 sequence (Q02763 23-1124): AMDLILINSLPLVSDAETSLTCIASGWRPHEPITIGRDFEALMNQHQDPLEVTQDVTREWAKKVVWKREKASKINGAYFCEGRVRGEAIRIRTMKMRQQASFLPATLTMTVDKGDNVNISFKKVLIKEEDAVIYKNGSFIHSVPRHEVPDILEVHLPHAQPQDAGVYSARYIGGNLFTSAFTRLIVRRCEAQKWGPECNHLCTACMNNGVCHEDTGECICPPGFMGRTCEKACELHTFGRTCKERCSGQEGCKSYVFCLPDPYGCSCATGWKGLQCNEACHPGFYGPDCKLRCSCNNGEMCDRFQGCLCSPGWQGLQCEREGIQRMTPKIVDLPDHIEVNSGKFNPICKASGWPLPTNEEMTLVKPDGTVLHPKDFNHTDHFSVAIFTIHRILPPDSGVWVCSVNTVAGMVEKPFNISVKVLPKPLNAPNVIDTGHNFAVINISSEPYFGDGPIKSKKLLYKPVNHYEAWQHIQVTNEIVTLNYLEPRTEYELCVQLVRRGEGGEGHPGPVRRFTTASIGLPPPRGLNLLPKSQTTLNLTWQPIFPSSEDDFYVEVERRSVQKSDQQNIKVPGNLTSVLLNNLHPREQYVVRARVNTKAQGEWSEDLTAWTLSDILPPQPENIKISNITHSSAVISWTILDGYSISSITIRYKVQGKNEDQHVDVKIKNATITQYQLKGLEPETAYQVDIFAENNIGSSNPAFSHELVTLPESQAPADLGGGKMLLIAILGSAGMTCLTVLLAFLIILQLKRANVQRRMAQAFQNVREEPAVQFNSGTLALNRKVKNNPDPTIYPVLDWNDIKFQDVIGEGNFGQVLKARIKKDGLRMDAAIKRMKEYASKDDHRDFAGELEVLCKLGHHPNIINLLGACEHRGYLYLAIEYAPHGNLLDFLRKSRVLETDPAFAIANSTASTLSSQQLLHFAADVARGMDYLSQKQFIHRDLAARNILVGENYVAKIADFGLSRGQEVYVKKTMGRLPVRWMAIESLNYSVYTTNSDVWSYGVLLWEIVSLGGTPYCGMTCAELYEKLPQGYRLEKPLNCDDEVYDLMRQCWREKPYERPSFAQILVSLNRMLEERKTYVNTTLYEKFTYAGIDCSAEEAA
Outline: (§1)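 Readout is percentage kinase inhibition. Testing used 1 µM or 10 µM compound in externally run ZLyte/Adapta in vitro assays, and IC50 values were derived within the same panel.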

[2] = target: T2, ZAP70 (Homo sapiens, UniProt P43403)
T2 construct: purchased Thermo Fisher Scientific
T2 sequence (P43403 1-619): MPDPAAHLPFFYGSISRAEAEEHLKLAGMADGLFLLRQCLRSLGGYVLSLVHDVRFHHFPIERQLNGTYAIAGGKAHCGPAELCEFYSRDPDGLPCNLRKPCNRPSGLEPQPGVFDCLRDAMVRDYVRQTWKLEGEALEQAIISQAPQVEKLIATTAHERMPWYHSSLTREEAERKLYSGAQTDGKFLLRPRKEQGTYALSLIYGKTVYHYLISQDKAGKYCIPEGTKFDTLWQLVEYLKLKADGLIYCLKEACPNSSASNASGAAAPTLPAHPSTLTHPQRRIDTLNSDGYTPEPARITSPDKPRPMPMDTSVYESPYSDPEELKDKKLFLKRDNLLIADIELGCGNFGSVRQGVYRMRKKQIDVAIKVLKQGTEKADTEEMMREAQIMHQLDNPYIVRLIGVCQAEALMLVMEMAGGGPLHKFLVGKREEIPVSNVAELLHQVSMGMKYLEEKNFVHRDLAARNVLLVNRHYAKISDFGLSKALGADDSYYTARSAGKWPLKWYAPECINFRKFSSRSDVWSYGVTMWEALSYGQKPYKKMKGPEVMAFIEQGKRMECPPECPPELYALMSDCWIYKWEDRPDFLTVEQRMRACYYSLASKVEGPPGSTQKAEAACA
Outline: as §1

[3] = target: T3, JAK2 JH1 JH2 V617F (Homo sapiens, UniProt O60674, V617F)
T3 construct: JAK2 JH1 JH2 V617F; purchased Thermo Fisher Scientific
T3 sequence (O60674 532-1132 V617F limits assumed): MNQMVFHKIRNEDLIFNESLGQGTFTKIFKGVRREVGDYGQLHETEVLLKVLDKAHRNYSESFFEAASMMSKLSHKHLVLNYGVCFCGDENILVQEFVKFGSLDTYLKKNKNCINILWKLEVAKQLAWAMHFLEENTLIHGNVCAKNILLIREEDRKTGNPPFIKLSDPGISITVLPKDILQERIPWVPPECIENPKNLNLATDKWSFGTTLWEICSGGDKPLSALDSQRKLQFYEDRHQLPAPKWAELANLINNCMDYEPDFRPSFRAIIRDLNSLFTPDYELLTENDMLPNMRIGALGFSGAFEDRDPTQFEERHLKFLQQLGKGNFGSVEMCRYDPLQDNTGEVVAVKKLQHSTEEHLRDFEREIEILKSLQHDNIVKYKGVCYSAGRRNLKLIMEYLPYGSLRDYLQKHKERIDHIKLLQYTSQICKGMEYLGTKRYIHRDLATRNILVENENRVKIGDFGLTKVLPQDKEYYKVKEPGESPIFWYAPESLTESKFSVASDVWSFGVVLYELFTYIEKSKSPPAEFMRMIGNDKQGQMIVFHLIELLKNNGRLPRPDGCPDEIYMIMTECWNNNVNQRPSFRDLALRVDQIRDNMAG
Outline: as §1

[4] = target: T4, NIM1K (Homo sapiens, UniProt Q8IY84)
T4 construct: purchased Thermo Fisher Scientific
T4 sequence (Q8IY84 whole entry): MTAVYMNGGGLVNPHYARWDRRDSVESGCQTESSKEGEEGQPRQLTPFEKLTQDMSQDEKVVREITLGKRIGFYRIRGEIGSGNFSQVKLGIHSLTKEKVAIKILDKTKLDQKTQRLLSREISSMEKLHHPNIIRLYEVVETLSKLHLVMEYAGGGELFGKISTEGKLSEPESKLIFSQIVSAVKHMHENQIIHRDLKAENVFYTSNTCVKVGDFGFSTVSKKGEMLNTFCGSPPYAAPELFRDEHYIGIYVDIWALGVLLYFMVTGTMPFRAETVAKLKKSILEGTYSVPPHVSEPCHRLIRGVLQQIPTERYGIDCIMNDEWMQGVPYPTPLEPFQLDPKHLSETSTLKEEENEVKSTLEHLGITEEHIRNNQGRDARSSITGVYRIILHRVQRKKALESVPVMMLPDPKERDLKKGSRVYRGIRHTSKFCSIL
Outline: as §1

[5] = target: T5, CSNK1G3 (CK1 gamma 3) (Homo sapiens, UniProt Q9Y6M4)
T5 construct: purchased Thermo Fisher Scientific
T5 sequence (Q9Y6M4 whole entry): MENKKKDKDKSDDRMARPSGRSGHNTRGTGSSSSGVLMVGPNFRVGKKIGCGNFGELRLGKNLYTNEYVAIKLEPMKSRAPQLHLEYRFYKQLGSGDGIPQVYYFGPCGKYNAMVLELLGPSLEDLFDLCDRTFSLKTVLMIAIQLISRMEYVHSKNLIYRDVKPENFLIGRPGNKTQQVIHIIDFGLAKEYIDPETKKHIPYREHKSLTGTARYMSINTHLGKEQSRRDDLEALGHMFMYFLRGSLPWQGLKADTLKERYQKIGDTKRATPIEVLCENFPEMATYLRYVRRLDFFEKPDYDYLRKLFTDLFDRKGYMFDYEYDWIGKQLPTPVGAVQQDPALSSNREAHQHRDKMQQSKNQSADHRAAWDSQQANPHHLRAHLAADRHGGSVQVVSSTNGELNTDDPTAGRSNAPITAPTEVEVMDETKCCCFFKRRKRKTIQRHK
Outline: as §1

[6] = target: T6, ADRBK1 (GRK2) (Homo sapiens, UniProt P25098)
T6 construct: purchased Thermo Fisher Scientific
T6 sequence (P25098 1-689): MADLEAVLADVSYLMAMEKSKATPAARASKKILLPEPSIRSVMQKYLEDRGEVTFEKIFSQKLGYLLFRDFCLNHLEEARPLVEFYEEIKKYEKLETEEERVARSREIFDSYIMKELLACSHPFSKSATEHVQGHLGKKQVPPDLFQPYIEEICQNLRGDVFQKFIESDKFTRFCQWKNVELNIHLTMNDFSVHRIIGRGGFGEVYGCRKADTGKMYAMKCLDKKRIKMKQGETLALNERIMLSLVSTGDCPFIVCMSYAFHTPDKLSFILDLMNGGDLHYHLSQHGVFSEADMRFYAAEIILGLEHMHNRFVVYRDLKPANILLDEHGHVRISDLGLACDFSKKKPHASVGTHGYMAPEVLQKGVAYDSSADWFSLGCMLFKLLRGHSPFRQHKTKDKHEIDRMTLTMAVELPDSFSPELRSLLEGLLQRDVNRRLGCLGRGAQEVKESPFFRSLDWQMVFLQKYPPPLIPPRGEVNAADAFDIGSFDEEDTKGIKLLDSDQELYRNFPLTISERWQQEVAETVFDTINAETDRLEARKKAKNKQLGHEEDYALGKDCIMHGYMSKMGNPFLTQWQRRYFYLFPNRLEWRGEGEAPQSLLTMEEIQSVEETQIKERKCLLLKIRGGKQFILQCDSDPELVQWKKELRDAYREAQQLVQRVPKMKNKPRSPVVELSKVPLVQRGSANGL
Outline: as §1

Molecule `COc1ccc2c(c1OC)c(=O)n1c3ccc(O)cc3c3ccnc2c31` [MW01, 5-Hydroxy-10,11-dimethoxy-9H-benzo[c]indolo[3,2,1-ij][1,5]naphthyridin-9-one] has an inhibition at 1 µM [1] of 19%, an inhibition at 10 µM [1] of 5% and an inhibition at 1 µM [2] of 12%. For the same molecule, the inhibition at 10 µM [2] was 16%, the inhibition at 1 µM [3] was 15% and the inhibition at 10 µM [3] was 29%. The inhibition at 1 µM [4] was 7%, the inhibition at 10 µM [4] was 13% and the inhibition at 1 µM [5] was 4%. The inhibition at 10 µM [5] was 12%, the inhibition at 1 µM [6] was 8% and the inhibition at 10 µM [6] was 17%.
With `COc1ccc2cc3c(N)nn(C(=O)c4cccc(N(C)C)c4)c3nc2c1` [MW05, (3-Amino-7-methoxypyrazolo[3,4-b]quinolin-1-yl)-[3-(dimethylamino)phenyl]methanone] the inhibition at 1 µM [1] was -2%, the inhibition at 10 µM [1] was 12% and the inhibition at 1 µM [2] was 15%. It also gave an inhibition at 10 µM [2] of 11%, an inhibition at 1 µM [3] of 1% and an inhibition at 10 µM [3] of -28%. For the same molecule, the inhibition at 1 µM [4] was 7%, the inhibition at 10 µM [4] was 2% and the inhibition at 1 µM [5] was 1%. For the same molecule, the inhibition at 10 µM [5] was 9%, the inhibition at 1 µM [6] was -1% and the inhibition at 10 µM [6] was 4%.
